Experiment [1] addresses T1, aryl hydrocarbon receptor (AHR) (Mus musculus, UniProt P30561).
T1 construct: Transfection was performed with 150 ng XRE-luciferase plasmid (Promega); endogenous in cells; host or cells: Hepa-1c1c7 (mouse hepatoma cell line)
In words: XRE-driven luciferase reporter assay, mouse Hepa1c1c7. It is filed as cell-based. A general note: Reporter assays use an easily measured gene product as a stand-in for the process of interest.
Description: Human HepG2 or mouse Hepa-1c1c7 cells were seeded in 96 well opaque plates at 75,000 cells per well in full medium (DMEM+10% FBS) for 24 hours. Transfection was performed with 150 ng XRE-luciferase plasmid (Promega) with 4:1 Fugene to DNA ratio for 18 hours in Opti-MEM. Transfected cells were treated with AhR agonist (10^−5-10^−12) for 4.5 h in full medium. Cells were lysed and luciferase was activated using the Luciferase Assay System (Promega). Luminescence signals were measured with a FluroStar Omega microplate reader. Luminescence signals of compound treated groups were normalized to vehicle (DMSO) treated control and plotted as concentration dependent fold changes.

For a further experiment, the system named is DSS induced colitis. In words: DSS induced colitis in mice. It is filed as in vivo, C57BL/6 mice. The protocol: C57BL/6 (8-10 week, male) mice were administered drinking water supplemented with 3% (wt/vol) dextran sodium sulfate (DSS; MP Biomedicals) for 7 days followed by a 13 day recovery period with unsupplemented drinking water. Compound 109 or compound 108 were suspended in vehicle (1% HPMC and 1% polysorbate 80 in water) and given daily by oral gavage (1 ug/mouse in 100 uL), starting at day 0. Control mice were administered 100 μL vehicle. Body weight and disease activity index (DAI) were recorded daily. DAI was determined by combining scores of weight loss, stool consistency, blood in stool, activity, and appearance.^1 Scores were determined as follows: change in weight (0: <1%, 1: 1-10%, 2: 10-18%, 3: 18-20%); stool consistency (0: normal, 1: loose stools, 2: diarrhea); stool blood (0: negative, 1: trace blood, 2: bloody stool, 3: gross bleeding), activity (0: normal, 1: low activity, 2: hiding, 3: no response to gentle stimuli) and appearance (0: normal, 1: rigor, 2: hunched posture). On day 7 and day 11, mice were euthanized and colon were removed for length measurement, histology, RNA isolation, and lamina propria mononuclear cell (LPMC) extraction as detailed below.
Dissected colon were cut longitudinally and rolled using the Swiss roll method with the distal side in the center.^2,3 Colons were fixed overnight in 10% neutral buffered formalin, processed for paraffin embedding and sectioned at 5 μm thickness. To visualize and quantify the inflammatory response and crypt loss, hematoxylin and eosin staining (H&E) was performed. Briefly, sections were cleared with xylene, rehydrated through alcohol gradient, stained by hematoxylin, washed by acid and ammonium alcohol, rinsed in water and exposed to Eosin followed by dehydrating through graded alcohols and cleared in xylene. All sections were mounted using Permount (Fisher Scientific) and visualized using a BX41 microscope (Olympus). For histological scoring, 3 transverse sections of Swiss roll were chosen and 9 (100×) images were captured for each section. Images were analyzed for inflammation and crypt structure and scored by a blind observer as follows: inflammation (0: rare inflammatory cells in the lamina propria; 1: increased numbers of inflammatory cells in the lamina propria; 2: confluence of inflammatory cells extending in to the submucosa; 3: transmural extension of the inflammatory infiltrate.); crypt loss (0: none; 1: basal 1/3 damaged; 2: basal 2/3 damaged; 3: only surface epithelium intact; 4: entire crypt and epithelium lost). Inflammation and crypt loss were scored separately and multiplied by a factor of 1-4 to adjust for impacted area of tissue section (1: 0-25%; 2: 25.1-50% affected; 3: 50.1-75% affected; 4: >75% affected).^1,4 To examine goblet cell number, sections were stained by a commercial periodic acid-Schiff (PAS) and Alcian blue kit (Fisher Scientific). For quantification, 3 transverse sections of Swiss roll were chosen per colon and 5 random images at 200x were taken per section in the distal region of the colon. Goblet cell number was counted per image and normalized to colon length by a blind observer using image J.^5
Colonic epithelium and lamina propria cells were isolated as previously described.^6,7 Briefly, colons were dissected and washed with HBSS to remove fecal contents. Colon were opened longitudinally and cut into 2 cm segments. […]

The next experiment deals with T2, AhR (Mus musculus, UniProt P30561).
T2 construct: endogenous in cells; host or cells: Hepa-1c1c7 (mouse hepatoma cell line)
Put plainly: AhR nuclear translocation assay, mouse Hepa-1c1c7. It is filed as cell-based. Particulars: mouse Hepa-1c1c7, 10 μM, 90 minutes. As to the method:
Mouse Hepa-1c1c7 or human HepG2 cells were seeded in 8 well chamber slides followed by 24 hours incubation in tryptophan deficient media (HBSS with Ca^2+ and Mg^2+, 10% heat inactivated FBS, 1× non-essential amino acids, 1× sodium pyruvate, 4.5 g/L glucose). Cells were treated with vehicle control (DMSO) or 10 μM ITE, compound 108, or compound 109 for 90 minutes in tryptophan deficient media. Following treatment, cells were fixed in 4% formaldehyde and processed according to standard immunofluorescence staining protocol. Primary anti-AhR antibody was applied at 1:100 dilution (Enzo, BML-SA210) and Alexa488 conjugated secondary antibody was applied at 1:500 dilution (Cell Signaling, 4412S). Actin was stained using Alexa 568 conjugated Phalloidin (Fisher). Samples were mounted in anti-fade mounting medium supplemented with DAPI for nuclear staining and imaged with confocal microscopy (Leica SP5×MP, 63× oil lens).

“Also recorded” adds a separate entry of the source.

The values below come from patent publication US12152016B2, “Aryl hydrocarbon receptor modulators and uses thereof” (Beth Israel Deaconess Medical Center, Inc., priority 2018, dated 2024).

T1 sequence (P30561 10-805 limits assumed): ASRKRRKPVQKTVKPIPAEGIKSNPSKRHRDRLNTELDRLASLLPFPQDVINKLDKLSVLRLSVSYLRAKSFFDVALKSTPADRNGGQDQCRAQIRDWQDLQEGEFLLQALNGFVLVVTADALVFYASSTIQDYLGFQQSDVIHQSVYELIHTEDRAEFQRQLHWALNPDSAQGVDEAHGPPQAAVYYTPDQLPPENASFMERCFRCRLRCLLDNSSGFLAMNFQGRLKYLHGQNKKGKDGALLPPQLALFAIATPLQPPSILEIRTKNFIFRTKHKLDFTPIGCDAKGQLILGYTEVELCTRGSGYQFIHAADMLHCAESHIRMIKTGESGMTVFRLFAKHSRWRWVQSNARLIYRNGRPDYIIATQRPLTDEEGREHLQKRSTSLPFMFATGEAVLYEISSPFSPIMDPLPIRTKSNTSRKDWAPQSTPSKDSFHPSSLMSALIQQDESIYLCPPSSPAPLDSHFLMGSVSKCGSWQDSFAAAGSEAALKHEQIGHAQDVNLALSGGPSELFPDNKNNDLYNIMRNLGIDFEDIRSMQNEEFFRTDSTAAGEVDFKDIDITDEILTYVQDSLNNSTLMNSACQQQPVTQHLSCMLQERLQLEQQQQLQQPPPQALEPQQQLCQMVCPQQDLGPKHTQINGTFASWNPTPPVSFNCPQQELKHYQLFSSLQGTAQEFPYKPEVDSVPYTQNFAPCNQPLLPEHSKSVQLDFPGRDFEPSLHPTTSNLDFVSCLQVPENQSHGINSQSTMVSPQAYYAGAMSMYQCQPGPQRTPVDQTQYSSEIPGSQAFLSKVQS
T1 sequence (P53762 whole entry partner): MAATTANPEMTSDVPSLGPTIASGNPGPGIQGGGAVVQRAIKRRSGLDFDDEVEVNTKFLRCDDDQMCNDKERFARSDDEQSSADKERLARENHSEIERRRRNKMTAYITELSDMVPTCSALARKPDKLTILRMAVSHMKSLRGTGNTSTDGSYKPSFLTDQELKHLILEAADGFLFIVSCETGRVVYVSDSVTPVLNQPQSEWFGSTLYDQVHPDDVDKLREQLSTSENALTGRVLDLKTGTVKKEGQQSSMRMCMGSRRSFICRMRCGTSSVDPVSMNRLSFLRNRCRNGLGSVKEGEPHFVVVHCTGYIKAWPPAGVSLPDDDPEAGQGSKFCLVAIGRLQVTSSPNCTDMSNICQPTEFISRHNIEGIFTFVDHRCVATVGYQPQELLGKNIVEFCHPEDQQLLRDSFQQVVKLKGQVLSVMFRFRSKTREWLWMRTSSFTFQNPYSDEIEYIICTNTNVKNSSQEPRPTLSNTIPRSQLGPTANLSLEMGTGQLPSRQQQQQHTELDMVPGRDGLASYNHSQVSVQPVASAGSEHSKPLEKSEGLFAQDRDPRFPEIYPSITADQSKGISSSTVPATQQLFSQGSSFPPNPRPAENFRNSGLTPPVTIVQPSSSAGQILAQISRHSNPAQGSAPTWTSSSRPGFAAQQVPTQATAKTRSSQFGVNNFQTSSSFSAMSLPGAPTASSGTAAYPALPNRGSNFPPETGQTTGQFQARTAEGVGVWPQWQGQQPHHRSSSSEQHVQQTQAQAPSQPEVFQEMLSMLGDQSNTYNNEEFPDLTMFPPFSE
T2 sequence (P30561 10-805 limits assumed): as the sequence (P30561 10-805 limits assumed) above
T2 sequence (P53762 whole entry partner): as the sequence (P53762 whole entry partner) above

Take `N#Cc1cccc(C(=O)c2c[nH]c3ccccc23)n1` [Compound 108, 6-(1H-indole-3-carbonyl)pyridine-2-carbonitrile]: in experiment [1], the EC50 turned out to be 94 nM and the “XRE luciferase Emax (fold)” value is recorded as 86 fold. Further, in the experiment on DSS induced colitis (3% DSS 7 days + 13 days recovery, 1 μg daily by oral gavage), the “DSS induced colitis, overall effect” value was “attenuates DSS induced colitis”. Besides, in the experiment with DSS induced colitis (3% DSS, 1 μg/day PO), the overall disease score result was “improved the overall disease score”, the survival result was “significantly improved survival” and the weight loss entry is recorded as “reduced weight loss”. The AhR nuclear translocation result at AhR is listed as “localized in the nucleus; also recorded: rapid nuclear enrichment of AhR”.

Usually EC50 stands for the concentration that produces a half-maximal response.
